The source of these data is article PMC10224536 (Molecules, 2023).

In general, Ki refers to a dissociation constant, usually derived from enzyme kinetics or from competition with a known ligand. For orientation: Kd means the free concentration of one partner at which half of the binding sites on the other are occupied at equilibrium, for simple one-to-one binding. The IC50 is the concentration needed to halve the response being measured.

Assay [1] has as its target T1, synthetic human Aβ1-42 fibrils (Homo sapiens, UniProt P05067).
T1 construct: Synthetic lyophilized human Aβ1-42 peptide; purchased EMC Microcollections, Tuebingen, Germany; host or cells: chemical synthesis
The assay can be described thus: Competition binding assay against [^3H]MODAG−001 on Aβ1-42 fibrils. To be noted: competition vs 1 nM [^3H]MODAG−001, Aβ1-42 fibrils 1 µM; mean ± SEM; read-out: Aβ—Ki [^3H]MODAG−001. On the procedure:
(§1) The generation of Aβ1-42 fibrils was adapted from Bagchi et al. and described by Kuebler et al.. Synthetic lyophilized human Aβ1-42 peptide (5 mg) with >90% purity (EMC Microcollections, Tuebingen, Germany) was dissolved in DMSO (221.5 µL). […] . The monomers were incubated in an Eppendorf Thermomixer at 37 °C with shaking at 800 rpm for 72 h to induce aggregation. Generated fibrils were sonicated for three minutes in a water bath (Elmasonic S 60 H, Elma Schmidbauer GmbH, Singen, Germany). The final products were aliquoted, frozen on dry ice, and stored at −80 °C until use.
(§2) Plates were incubated on a shaker (MaxQ 6000, Thermo Fisher Scientific Inc., Marietta, OH, USA) at 50 rpm for 2 h at 37 °C, covered by removable sealing tape (PerkinElmer, Waltham, MA, USA). Vacuum filtration and read-out were performed as previously reported. Briefly, a glass fiber Filtermat B (PerkinElmer, Waltham, MA, USA) incubated with 0.5% polyethylenimine (PEI; Sigma Aldrich Chemie GmbH, Munich, Germany) for 30 min at 4 °C prior to filter harvesting was used with a FilterMate Harvester (PerkinElmer, Waltham, MA, USA). Melt-on scintillator sheets (MeltiLex B/HS, PerkinElmer, Waltham, MA, USA) were melted onto dried filters. Accumulation of tritium was counted in a liquid scintillation Wallac MicroBeta TriLux counter (PerkinElmer, Waltham, MA, USA) at two minutes/well.
(§3) . Data points were fitted using non-linear regression analysis in GraphPad Prism (GraphPad Software, Inc., Version 8.4.0, San Diego, CA, USA).

For assay [2], the target named is T1, synthetic human Aβ1-42 fibrils. The assay can be described thus: Competition binding assay against [^3H]SIL26 on Aβ1-42 fibrils. Here is the method:
as §1, §2, §3

Assay [3] deals with T2, human recombinant αSYN fibrils (Homo sapiens, UniProt P37840). The assay can be described thus: Competition binding assay against [^3H]SIL26 on αSYN fibrils.
Procedure: (§4) The concentrations of αSYN fibrils and Aβ1-42 fibrils as above were used.
(§5) Plates were incubated on a shaker (MaxQ 6000, Thermo Fisher Scientific Inc., Marietta, OH, USA) at 50 rpm for 2 h at 37 °C, covered by removable sealing tape (PerkinElmer, Waltham, MA, USA). Vacuum filtration and read-out were performed as previously reported [18]. Briefly, a glass fiber Filtermat B (PerkinElmer, Waltham, MA, USA) incubated with 0.5% polyethylenimine (PEI; Sigma Aldrich Chemie GmbH, Munich, Germany) for 30 min at 4 °C prior to filter harvesting was used with a FilterMate Harvester (PerkinElmer, Waltham, MA, USA). Melt-on scintillator sheets (MeltiLex B/HS, PerkinElmer, Waltham, MA, USA) were melted onto dried filters. Accumulation of tritium was counted in a liquid scintillation Wallac MicroBeta TriLux counter (PerkinElmer, Waltham, MA, USA) at two minutes/well.
Assay [4] deals with T2, human recombinant αSYN fibrils. The assay can be described thus: Competition binding assay against [^3H]MODAG−001 on αSYN fibrils. To be noted: for αSYN—Ki [^3H]MODAG−001: competition vs 1 nM [^3H]MODAG−001, αSYN fibrils 50 nM, mean ± SEM.
Procedure: as §4, §5
Assay [5] addresses Aβ. As to conditions: FDA-approved Aβ PET tracers; cited from earlier work.
The target of assay [6] is αSYN. To be noted: carbon-11 labeled PET tracer; cited from earlier work.
Setting [7] is: competition vs [^3H]SIL26 (7 nM), αSYN fibrils 35 nM, mean ± SEM.

T1 sequence (P05067 672-713 limits assumed): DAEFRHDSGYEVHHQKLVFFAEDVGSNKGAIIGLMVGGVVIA

In the case of `COc1ccc2c(c1)Sc1cc(-c3cc(-c4ccccc4)n[nH]3)ccc1N2` [DAP1a, 3-Methoxy-7-(3-phenyl-1H-pyrazol-5-yl)-10H-phenothiazine], the inhibitory constant (Ki) in assay [1] stood at 10.5 ± 0.9 nM; in assay [2], 10.7 nM; in assay [3] it was 186 ± 145 nM; in assay [4], 289 ± 159 nM.

Consider `COc1ccc2c(c1)Sc1cc(-c3cc(-c4ccccn4)n[nH]3)ccc1N2` [DAP1b, 3-Methoxy-7-(3-(pyridin-2-yl)-1H-pyrazol-5-yl)-10H-phenothiazine], for which the Ki in assay [1] amounted to 10.3 ± 0.8 nM; in assay [2] it was 7.6 nM; in assay [3], 90.1 ± 56.8 nM; in assay [4], 69.9 ± 14.9 nM.

For the compound `COc1ccc2c(c1)Sc1cc(-c3cc(-c4cccc(F)c4)n[nH]3)ccc1N2` [DAP1c, 3-(3-(3-Fluorophenyl)-1H-pyrazol-5-yl)-7-methoxy-10H-phenothiazine], the inhibition constant (Ki) in assay [1] was 15.9 ± 2.4 nM; in assay [2], 1 nM; in assay [3], over 400 nM; in assay [4], over 400 nM.

Consider `FCCOc1ccc2c(c1)Sc1cc(-c3cc(-c4ccccc4)n[nH]3)ccc1N2` [DAP2a, 3-(2-Fluoroethoxy)-7-(3-phenyl-1H-pyrazol-5-yl)-10H-phenothiazine], for which the Ki was 7.7 ± 1.7 nM in assay [1], 25.8 ± 5.8 nM in assay [2], over 400 nM in assay [3] and 144 ± 49.5 nM in assay [4].

For `FCCOc1ccc2c(c1)Sc1cc(-c3cc(-c4ccccn4)n[nH]3)ccc1N2` [DAP2b, 3-(2-Fluoroethoxy)-7-(3-(pyridin-2-yl)-1H-pyrazol-5-yl)-10H-phenothiazine], the Ki in assay [1] was 12.2 ± 1.7 nM; in assay [2], 65.8 ± 56.4 nM; in assay [3], over 400 nM; in assay [4], 107 ± 31.4 nM.

With `FCCOc1ccc2c(c1)Sc1cc(-c3cc(-c4cccc(F)c4)n[nH]3)ccc1N2` [DAP2c, 3-(2-Fluoroethoxy)-7-(3-(3-fluorophenyl)-1H-pyrazol-5-yl)-10H-phenothiazine], the inhibition constant (Ki) in assay [1] is 8 ± 1.3 nM; in assay [2], 3.1 ± 2.1 nM; in assay [3], over 400 nM; in assay [4] it was 212 ± 93.8 nM.

Take `COc1cccc(Sc2cc(-c3cc(-c4ccccc4)n[nH]3)ccc2N)c1` [DAP3a, 2-((3-Methoxyphenyl)thio)-4-(3-phenyl-1H-pyrazol-5-yl)aniline]: the Ki in assay [1] is over 400 nM; in assay [2], 86.1 nM. Moreover, the “αSYN—Ki [^3H]SIL26” value in assay [3] (setting [7]) is “no competition ^a”. The “αSYN—Ki [^3H]MODAG−001” value in assay [4] is “no competition”.

In the case of `COc1cccc(Sc2cc(-c3cc(-c4ccccn4)n[nH]3)ccc2N)c1` [DAP3b, 2-((3-Methoxyphenyl)thio)-4-(3-(pyridin-2-yl)-1H-pyrazol-5-yl)aniline], the inhibition constant Ki in assay [1] was over 400 nM. Besides, in assay [3] (setting [7]), the “αSYN—Ki [^3H]SIL26” value is listed as “no competition ^a”. Further, the “αSYN—Ki [^3H]MODAG−001” value in assay [4] is reported as “no competition”.

Consider `COc1cccc(Sc2cc(-c3cc(-c4cccc(F)c4)n[nH]3)ccc2N)c1` [DAP3c, 4-(3-(3-Fluorophenyl)-1H-pyrazol-5-yl)-2-((3-methoxyphenyl)thio)aniline], for which the inhibitory constant (Ki) in assay [1] was over 400 nM. The “αSYN—Ki [^3H]SIL26” value in assay [3] (setting [7]) is listed as “no competition ^a”. In assay [4], the “αSYN—Ki [^3H]MODAG−001” value is reported as “no competition”.

Consider `CNc1ccc(/C=C/c2ccc(OCCOCCOCCF)cc2)cc1` [Florbetaben], for which the Ki in assay [5] is 6.7 ± 0.3 nM.

Consider `CNc1ccc(/C=C/c2ccc(OCCOCCOCCF)nc2)cc1` [Florbetapir], for which the dissociation constant Kd in assay [5] was 3.72 ± 0.3 nM.

As for `CNc1ccc(-c2nc3ccc(O)cc3s2)cc1F` [Flutemetamol], the Ki in assay [5] is 0.74 ± 0.38 nM.

Regarding `CN(C)c1ccc(-c2cc(-c3ccnc(Br)c3)n[nH]2)cc1` [MODAG−001, reference compound], in assay [6], the Kd is 0.6 ± 0.1 nM. The Ki in assay [3] (read-out: αSYN—Ki [^3H]SIL26, competition vs [^3H]SIL26 (7 nM), αSYN fibrils 35 nM, mean ± SEM) was 10.8 nM.

As for `CN(C)c1ccc(-c2cc(-c3cccc(Br)c3)[nH]n2)cc1` [[^11C]anle253b], the half-maximal inhibitory concentration (IC50) in assay [6] is 1.6 nM.
